Data published in patent US20260055102A1 (Redx Pharma Limited, priority 2022, published 2026).

What was measured:
[1] = molecular target: Recombinant human DDR2 (aa427-855 containing a GST tag) (Homo sapiens (Human), UniProt Q16832); assay: LanthaScreen Eu Kinase Binding Assay DDR2; conditions: Kinase Tracer 178 10 nM, at least two independent replicates; for IC50: read-out: DDR2 pIC50 (converted)
Outline: (§1)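 DDR1 (2.5 nM) or DDR2 (1.75 nM) was preincubated with compound 30 min at RT in 50 mM HEPES pH 7.3, 10 mM MgCl2, 1 mM EGTA, 0.01% Tween. Eu-anti-GST and Tracer 178 were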

[2] = molecular target: Recombinant human DDR1 (aa440-876 containing a GST tag) (Homo sapiens (Human), UniProt Q08345); assay: LanthaScreen Eu Kinase Binding Assay DDR1; conditions: Kinase Tracer 178 5 nM, at least two independent replicates; for IC50: read-out: DDR1 pIC50 (converted)
Outline: as §1

Recombinant human DDR1 (aa440-876 containing a GST tag), sequence (Q08345 other isoform, or with tags, fused parts or gaps): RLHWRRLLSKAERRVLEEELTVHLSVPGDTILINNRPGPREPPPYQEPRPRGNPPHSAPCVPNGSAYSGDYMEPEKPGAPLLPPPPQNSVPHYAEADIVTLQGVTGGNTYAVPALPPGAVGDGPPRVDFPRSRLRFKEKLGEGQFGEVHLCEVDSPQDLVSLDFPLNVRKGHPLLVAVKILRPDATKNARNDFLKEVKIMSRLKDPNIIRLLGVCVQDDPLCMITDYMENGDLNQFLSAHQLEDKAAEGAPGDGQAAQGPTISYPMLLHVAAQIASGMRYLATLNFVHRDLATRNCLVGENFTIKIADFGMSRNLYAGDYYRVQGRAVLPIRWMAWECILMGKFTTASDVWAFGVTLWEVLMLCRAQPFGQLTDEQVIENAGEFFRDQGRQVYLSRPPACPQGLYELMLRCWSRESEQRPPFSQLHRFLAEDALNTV
Recombinant human DDR2 (aa427-855 containing a GST tag), sequence (Q16832 427-855): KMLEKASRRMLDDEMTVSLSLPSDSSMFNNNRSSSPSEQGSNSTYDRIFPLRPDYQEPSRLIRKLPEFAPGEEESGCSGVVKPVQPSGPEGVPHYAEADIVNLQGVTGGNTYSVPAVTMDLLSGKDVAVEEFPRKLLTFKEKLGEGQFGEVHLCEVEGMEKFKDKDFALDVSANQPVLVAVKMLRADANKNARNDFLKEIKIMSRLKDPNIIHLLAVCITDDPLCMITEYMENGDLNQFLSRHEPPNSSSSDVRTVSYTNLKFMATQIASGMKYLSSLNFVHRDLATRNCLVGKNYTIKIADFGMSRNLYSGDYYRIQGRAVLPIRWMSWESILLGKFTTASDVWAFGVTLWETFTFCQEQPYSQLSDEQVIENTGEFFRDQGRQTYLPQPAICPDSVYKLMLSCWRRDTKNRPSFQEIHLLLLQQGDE

Compound | DDR2 pIC50 [1] | IC50 [2] [nM] | DDR1 pIC50 [2] | IC50 [1] [nM]
Cn1ncc2c(-c3cc(F)c(-n4c(=O)n(CC(=O)NCC(F)(F)F)c5ccccc54)c(F)c3)cncc21 [Example 89, 2-[3-[2,6-difluoro-4-(1-methylpyrazolo[3,4-c]pyridin-4-yl)phenyl]-2-oxo-benzimidazol-1-yl]-N-(2,2,2-trifluoroethyl)acetamide] | D (pIC50≤6) | 10 to 100 |  | 
Cc1cc(-c2cncc3c2cnn3C)cc(C)c1-n1c(=O)n(CC(=O)NCC(F)(F)F)c2ccccc21 [Example 90, 2-[3-[2,6-dimethyl-4-(1-methylpyrazolo[3,4-c]pyridin-4-yl)phenyl]-2-oxo-benzimidazol-1-yl]-N-(2,2,2-trifluoroethyl)acetamide] | D (pIC50≤6) | 100 to 1000 |  | 
Cn1ncc2c(-c3ccc(-n4c(=O)n(CC(=O)NCC(F)(F)F)c5ccccc54)cn3)cncc21 [Example 91, 2-[3-[6-(1-methylpyrazolo[3,4-c]pyridin-4-yl)-3-pyridyl]-2-oxo-benzimidazol-1-yl]-N-(2,2,2-trifluoroethyl)acetamide] | D (pIC50≤6) |  | C (7≥pIC50>6) | 
Cc1cccc2c1n(-c1ncc(-c3cncc4[nH]ncc34)cn1)c(=O)n2CC(=O)N[C@H](C)C(F)(F)F [Example 98, 2-[4-methyl-2-oxo-3-[5-(1H-pyrazolo[3,4-c]pyridin-4-yl)pyrimidin-2-yl]benzimidazol-1-yl]-N-[(1R)-2,2,2-trifluoro-1-methyl-ethyl]acetamide] | D (pIC50≤6) | 100 to 1000 |  | 
Cc1nc(-n2c(=O)n(CC(=O)N[C@@H](C)C(F)(F)F)c3cccc(C)c32)cnc1-c1cncc2c1cnn2C [Example 101, 2-[4-methyl-3-[6-methyl-5-(1-methylpyrazolo[3,4-c]pyridin-4-yl)pyrazin-2-yl]-2-oxo-benzimidazol-1-yl]-N-[(1S)-2,2,2-trifluoro-1-methyl-ethyl]acetamide] | D (pIC50≤6) | 100 to 1000 |  | 
Cc1cc(-c2cncc3c2cnn3C)ncc1-n1c(=O)n(CC(=O)N[C@@H](C)C(F)(F)F)c2cccc(C)c21 [Example 106] |  | 10 to 100 |  | 100 to 1000
Cc1cc(-c2cncc3c2cnn3C)ncc1-n1c(=O)n(CC(=O)N[C@H](C)C(F)(F)F)c2cccc(C)c21 [Example 107] | D (pIC50≤6) | 100 to 1000 |  | 
Cc1cc(-c2cncc3c2cnn3C)cnc1-n1c(=O)n(CC(=O)N[C@H](C)C(F)(F)F)c2cccc(C)c21 [Example 111] | D (pIC50≤6) | 100 to 1000 |  | 
Cc1nc(-c2cncc3c2cnn3C)ccc1-n1c(=O)n(CC(=O)N[C@H](C)C(F)(F)F)c2cccc(C)c21 [Example 112] |  | 10 to 100 |  | 100 to 1000
Cc1nc(-c2cncc3c2cnn3C)ccc1-n1c(=O)n(CC(=O)N[C@@H](C)C(F)(F)F)c2cccc(C)c21 [Example 113] |  | 10 to 100 |  | 100 to 1000

Second part, the compound after the results:

DDR2 pIC50 [1] | IC50 [2] [nM] | DDR1 pIC50 [2] | IC50 [1] [nM] | Compound
 |  | A (pIC50>8) | 100 to 1000 | Cc1cc(-c2cncc3[nH]ncc23)ncc1-n1c(=O)n(CC(=O)NCC(F)(F)F)c2cccc(C)c21 [Example 93, 2-[4-methyl-3-[4-methyl-6-(1H-pyrazolo[3,4-c]pyridin-4-yl)-3-pyridyl]-2-oxo-benzimidazol-1-yl]-N-(2,2,2-trifluoroethyl)acetamide]
 |  | A (pIC50>8) | 10 to 100 | Cc1nc(-c2cncc3[nH]ncc23)ccc1-n1c(=O)n(CC(=O)NCC(F)(F)F)c2cccc(C)c21 [Example 94, 2-[4-methyl-3-[2-methyl-6-(1H-pyrazolo[3,4-c]pyridin-4-yl)-3-pyridyl]-2-oxo-benzimidazol-1-yl]-N-(2,2,2-trifluoroethyl)acetamide]
 |  | A (pIC50>8) | 100 to 1000 | Cc1nc(-c2cncc3c2cnn3C)ccc1-n1c(=O)n(CC(=O)NCC(F)(F)F)c2cccc(C)c21 [Example 95, 2-[4-methyl-3-[2-methyl-6-(1-methylpyrazolo[3,4-c]pyridin-4-yl)-3-pyridyl]-2-oxo-benzimidazol-1-yl]-N-(2,2,2-trifluoroethyl)acetamide]
 |  | A (pIC50>8) | 100 to 1000 | Cc1nc(-c2cncc3c2cnn3C)cnc1-n1c(=O)n(CC(=O)NCC(F)(F)F)c2cccc(C)c21 [Example 96, 2-[4-methyl-3-[3-methyl-5-(1-methylpyrazolo[3,4-c]pyridin-4-yl)pyrazin-2-yl]-2-oxo-benzimidazol-1-yl]-N-(2,2,2-trifluoroethyl)acetamide]
D (pIC50≤6) |  | D (pIC50≤6) |  | Cc1cc(-n2c(=O)n(CC(=O)NCC(F)(F)F)c3cccc(C)c32)cnc1-c1cncc2c1cnn2C [Example 97, 2-[4-methyl-3-[5-methyl-6-(1-methylpyrazolo[3,4-c]pyridin-4-yl)-3-pyridyl]-2-oxo-benzimidazol-1-yl]-N-(2,2,2-trifluoroethyl)acetamide]
D (pIC50≤6) | 100 to 1000 |  |  | Cc1cc(-n2c(=O)n(CC(=O)NCC(F)(F)F)c3cccc(C)c32)cnc1-c1cncc2[nH]ncc12 [Example 99, 2-[4-methyl-3-[5-methyl-6-(1H-pyrazolo[3,4-c]pyridin-4-yl)-3-pyridyl]-2-oxo-benzimidazol-1-yl]-N-(2,2,2-trifluoroethyl)acetamide]
D (pIC50≤6) | 100 to 1000 |  |  | Cc1cc(-n2c(=O)n(CC(=O)NCC(F)(F)F)c3cccc(C)c32)cnc1-c1cncc2[nH]nc(C)c12 [Example 102, 2-[4-methyl-3-[5-methyl-6-(3-methyl-1H-pyrazolo[3,4-c]pyridin-4-yl)-3-pyridyl]-2-oxo-benzimidazol-1-yl]-N-(2,2,2-trifluoroethyl)acetamide]
D (pIC50≤6) | 10 to 100 |  |  | Cc1nc(-c2cncc3[nH]nc(C)c23)ccc1-n1c(=O)n(CC(=O)NCC(F)(F)F)c2cccc(C)c21 [Example 103, 2-[4-methyl-3-[2-methyl-6-(3-methyl-1H-pyrazolo[3,4-c]pyridin-4-yl)-3-pyridyl]-2-oxo-benzimidazol-1-yl]-N-(2,2,2-trifluoroethyl)acetamide]
D (pIC50≤6) |  | D (pIC50≤6) |  | Cc1nc(-c2cncc3[nH]nc(C)c23)cnc1-n1c(=O)n(CC(=O)NCC(F)(F)F)c2cccc(C)c21 [Example 104, 2-[4-methyl-3-[3-methyl-5-(3-methyl-1H-pyrazolo[3,4-c]pyridin-4-yl)pyrazin-2-yl]-2-oxo-benzimidazol-1-yl]-N-(2,2,2-trifluoroethyl)acetamide]
 | 10 to 100 |  | 100 to 1000 | Cc1nc(-n2c(=O)n(CC(=O)NCC(F)(F)F)c3cccc(C)c32)cnc1-c1cncc2[nH]nc(C)c12 [Example 105, 2-[4-methyl-3-[6-methyl-5-(3-methyl-1H-pyrazolo[3,4-c]pyridin-4-yl)pyrazin-2-yl]-2-oxo-benzimidazol-1-yl]-N-(2,2,2-trifluoroethyl)acetamide]
D (pIC50≤6) | 100 to 1000 |  |  | Cc1cc(-c2cncc3c2c(C)nn3C)ncc1-n1c(=O)n(CC(=O)NCC(F)(F)F)c2cccc(C)c21 [Example 108]
D (pIC50≤6) |  | D (pIC50≤6) |  | Cc1ncc2c(cnn2C)c1-c1ccc(-n2c(=O)n(CC(=O)NCC(F)(F)F)c3cccc(C)c32)cn1 [Example 109]
D (pIC50≤6) | 10 to 100 |  |  | Cc1cc(-c2cncc3c2cnn3C)cnc1-n1c(=O)n(CC(=O)NCC(F)(F)F)c2cccc(C)c21 [Example 110]
 | 10 to 100 |  | 10 to 100 | Cc1nc(-c2cncc3c2cnn3C)cnc1-n1c(=O)n(CC(=O)N[C@@H](C)C(F)(F)F)c2cccc(C)c21 [Example 115]
